From paper PMC5897267 (EJNMMI Research, 2018)
Where “and” joins values, the source holds several entries; their conditions need not be identical. Identical values can stand only once.

How the values were obtained:
[1] = system: PSMA-expressing LNCaP cells; test: Internalization of the 18F-labeled ligands, normalized to ([125I]I-BA)KuE; format: cell-based, human; conditions: for Specific Internalization (1h; % of reference): LNCaP cells, 37°C, corrected for non-specific internalization (100 μM PMPA), reference ([125I]I-BA)KuE, mean ± SD, n = 3; for fold higher internalization rate than the reference ligands: versus 18F-DCFPyl and 18F-PSMA-1007, PSMA-expressing cells
Method: PSMA overexpressing LNCaP cells (CLS: 300265) were cultured in DMEM/Nutrition Mix F-12 with Glutamax-I (1:1) (Invitrogen, Life Technologies, Darmstadt, Germany) supplemented with 10% FCS and were maintained at 37 °C in a 5% CO2/humidified air atmosphere. For IC50 determination, approximately 150,000 cells/well were seeded on 24-well plates 1 day prior to the experiment. For internalization studies, 125,000 cells/well were seeded in PLL-coated 24-well plates. For cell counting, a Countesse automated cell counter (Invitrogen, Carlsbad, USA) was used.
PSMA affinity and internalization kinetics of the ^18F-labeled compounds were determined according to a previously published protocol. A detailed description is provided online in the supporting information.
Competitive binding experiments (IC50) were carried out using PSMA-expressing LNCaP cells and ([^125I]I-BA)KuE as standard radioligand. Internalization kinetics of the ^18F-labeled derivatives were also performed using PSMA-expressing LNCaP cells and ([^125I]I-BA)KuE (0.2 nM) as an internal reference. Data were corrected for non-specific internalization in the presence of 100 μM 2-phosphonomethyl pentanedioic acid (PMPA) and normalized to the specific internalization observed for the radioiodinated reference compound assayed in a parallel experiment. Data represent means ± SD (n = 3).
Internalization studies of the 18F-labeled EuE-based inhibitors, 18F-DCFPyl and 18F-PSMA-1007 were performed according to a previously published protocol. Briefly, after washing the cells with 0.5 mL DMEM-F12 (5% BSA), the cells were preconditioned for a minimum of 15 min with 200 µL DMEM-F12 (5% BSA) at 37°C. Then, 25 µL (per well) of either assay medium (total internalization) or of a 100 µM 2-PMPA solution (non-specific internalization) were added, followed by addition of 25 µL of assay medium containing the respective 18F-labeled PSMA inhibitor or ([125I]I-BA)KuE (0.2 nM). The internalization kinetics were determined by cell incubation at 37°C for 5, 15, 30, and 60 min, respectively. All experiments were carried out in triplicate for each time point (control and blocking).
Incubation was terminated by placing the plate on ice and by removal of the incubation medium. The cells were subsequently rinsed with 250 µL DMEM-F12 (5% BSA) and combined with the supernatant of the previous step (amount of free radioligand). To remove receptor surface-bound radioactivity, the cells were incubated with 250 µL of ice cold PMPA in PBS (10 µM) for 10 min. After removal of the supernatant, the cells were thoroughly rinsed with another 250 µL of ice-cold PBS and both fractions were combined (amount of receptor-bound radioactivity). By incubation of the cells with 250 µL 1N NaOH (5 min), the internalized activity was released, the suspension transferred to vials, and combined with 250 µL of 1N NaOH used for subsequent rinsing of the wells. Quantification of the amount of free, PMPA-releasable, and internalized activity was performed in a γ-counter. For analysis of the internalization, data for both the 18F-labeled compound of interest and for the reference ([125I]I-BA)KuE in the same experiment were first corrected by the amount of non-specific internalization (adding of 100 µM PMPA), respectively, and then each was normalized to the amount of internalized ligand in the absence of unlabeled competitor (100%). To eliminate the influence of cell count and cell viability on the absolute internalization values, data (60 min) are expressed as the ratio of the internalization of the compound of interest to the internalization (60 min) found for ([125I]I-BA)KuE in the same experiment (Fig 2, Fig S3). Data represent means ± SD (n=3).
18F-PSMA-1007 and reference ([125I]I-BA)KuE into LNCaP cells (37°C) (mean ± SD [n = 3]) *Specific internalization of the reference compound ([125I]I-BA)KuE assayed in a parallel experiment and used for data […]
The results of the metabolite analyses of the 18F-labeled EuE-based inhibitors, as well as of 18F-PSMA- […]

[2] = system: mCRPC patient; test: PET/MR imaging of a mCRPC patient (compassionate use); format: in vivo, human; conditions: PET/MR 62 min after injection of 158 MBq
Method: Based on the promising preclinical results obtained for EuE-k-^18F-FBOA (1) a mCRPC patient (PSA 392 ng/ml) was imaged under compassionate use. The agent was applied in compliance with The German Medicinal Products Act, Arzneimittelgesetz (AMG) §13 2b, and in accordance with the responsible regulatory body (Government of Oberbayern). The patient underwent PET/MR imaging 62 min after injection of 158 MBq of EuE-k-^18F-FBOA (Fig. 6).
Images show the typical biodistribution of PSMA ligands with minimal blood pool retention.

[3] = CD-1, mouse, in vivo, 1 h
Method: (§14) Approximately 60–70 MBq of the ^18F-labeled inhibitors were injected into the tail vein of severe combined immunodeficiency (SCID) mice. The animals were sacrificed 1 h p.i., blood and urine were collected, and kidneys were dissected and after freezing with liquid nitrogen, homogenized with a ball mill and extracted with 1 mL PBS containing 200 nmol PMPA. After centrifugation (15,000g) and ultrafiltration, the extracts were analyzed by reversed phase high-performance liquid chromatography (RP-HPLC). Blood samples were centrifuged to separate the plasma from the blood cells. Additionally, plasma proteins were removed by precipitation with acetonitrile (10 min, on ice), subsequent centrifugation and ultrafiltration. The blood extracts and the urine samples were analyzed using RP-HPLC. For RP-HPLC, a Nucleosil 100 C18 (5 μm, 125 × 4.0) column and different HPLC-systems were used (EuE-based inhibitors: flow rate: 2 mL/min; Gradient: 0–30% B in 20 min; HPLC-System A (see Additional file 1); ^18F-PSMA-1007: flow rate: 1.5 mL/min; Gradient: 5–55% B in 10 min; HPLC-System B (see Additional file 1); solvent A: 0.1% trifluoroacetic acid (TFA) in water, solvent B: 0.1% TFA in MeCN).

[4] = molecular target: T1, human serum albumin (HSA) (Homo sapiens, UniProt P02768); test: Plasma protein binding on Chiralpak HSA column; format: in vitro ADME
T1 construct: purchased Chiralpak (manufacturer not given)
T1 sequence (P02768 25-609): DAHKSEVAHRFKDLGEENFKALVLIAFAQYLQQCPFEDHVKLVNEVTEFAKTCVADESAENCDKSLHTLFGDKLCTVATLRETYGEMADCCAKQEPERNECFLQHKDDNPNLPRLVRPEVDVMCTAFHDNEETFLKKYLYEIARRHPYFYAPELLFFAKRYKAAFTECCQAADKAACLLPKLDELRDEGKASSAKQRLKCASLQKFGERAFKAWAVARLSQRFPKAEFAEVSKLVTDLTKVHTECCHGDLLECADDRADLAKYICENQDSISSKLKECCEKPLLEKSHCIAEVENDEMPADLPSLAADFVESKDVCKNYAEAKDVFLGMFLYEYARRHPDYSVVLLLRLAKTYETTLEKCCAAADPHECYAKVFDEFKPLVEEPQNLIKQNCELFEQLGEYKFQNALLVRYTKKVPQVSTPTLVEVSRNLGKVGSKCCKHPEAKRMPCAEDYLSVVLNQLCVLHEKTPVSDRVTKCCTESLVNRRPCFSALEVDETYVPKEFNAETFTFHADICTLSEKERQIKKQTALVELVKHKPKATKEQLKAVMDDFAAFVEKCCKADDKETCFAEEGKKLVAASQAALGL
Method: Plasma protein binding of the tracers was determined using an analytical Chiralpak human serum albumin (HSA) column (50 × 3 mm, 5 μm) according to a previously published protocol with minor changes.

[5] = molecular target: T2, PSMA (Homo sapiens, UniProt Q04609); test: Competitive binding assay (IC50) on LNCaP cells with ([125I]I-BA)KuE as radioligand; conditions: cold reference ligands, ([125I]I-BA)KuE 0.2 nM, 1 h, 4°C, mean ± SD, n = 3, read-out: PSMA affinity (IC50)
T2 construct: host or cells: LNCaP cells
T2 sequence (Q04609 whole entry): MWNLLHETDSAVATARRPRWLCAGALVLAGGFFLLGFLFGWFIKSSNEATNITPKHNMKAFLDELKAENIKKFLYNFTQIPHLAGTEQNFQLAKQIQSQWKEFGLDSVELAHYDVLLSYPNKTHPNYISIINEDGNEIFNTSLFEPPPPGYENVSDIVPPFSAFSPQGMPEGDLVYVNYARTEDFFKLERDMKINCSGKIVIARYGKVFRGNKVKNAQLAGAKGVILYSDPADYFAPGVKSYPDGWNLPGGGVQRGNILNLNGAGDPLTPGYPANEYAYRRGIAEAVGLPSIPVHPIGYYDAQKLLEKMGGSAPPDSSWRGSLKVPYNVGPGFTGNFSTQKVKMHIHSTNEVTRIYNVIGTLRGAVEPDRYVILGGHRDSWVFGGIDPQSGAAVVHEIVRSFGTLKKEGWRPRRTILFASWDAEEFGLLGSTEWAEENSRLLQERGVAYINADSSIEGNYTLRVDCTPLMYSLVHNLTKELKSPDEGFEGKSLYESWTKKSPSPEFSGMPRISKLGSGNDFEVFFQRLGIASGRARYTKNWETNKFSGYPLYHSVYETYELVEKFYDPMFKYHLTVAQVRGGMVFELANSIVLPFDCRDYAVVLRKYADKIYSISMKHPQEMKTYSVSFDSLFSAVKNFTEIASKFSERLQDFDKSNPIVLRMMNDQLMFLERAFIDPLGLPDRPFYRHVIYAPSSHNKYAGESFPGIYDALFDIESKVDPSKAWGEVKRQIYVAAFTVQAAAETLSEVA
Method: Competitive binding experiments (IC50) were carried out using PSMA-expressing LNCaP cells and ([^125I]I-BA)KuE as standard radioligand. […] Data represent means ± SD (n = 3).
Determination of the PSMA binding affinities (IC50)
The culture medium was removed and the cells were washed with 500 µL of HBSS (Hank´s balanced salt solution, Biochrom Berlin, Germany, containing 1% bovine serum albumin (BSA)). Before the experiment the cells were left to equilibrate in 200 µL HBSS (1% BSA) for 15 min on ice. Afterwards, 25 µL/well of solutions containing the respective unlabeled inhibitor in increasing concentrations (10- 10 – 10^-4 M in HBSS (1% BSA)) or either HBSS (1% BSA) as control were added, followed by the addition of 25 µL of ([125I]I-BA)KuE as a competitor. The final concentration of the radioiodinated inhibitor was 0.2 nM in all assays. For each concentration the experiments were performed in triplicates. Incubation of the cells was carried out for 60 min on ice and terminated by removal of the assay medium. The cells were thoroughly rinsed with 250 µL of HBSS and the washing medium was combined with the supernatant of the previous step, representing the amount of free radioligand.
Then, the cells were lysed using 250 µL of 1 N NaOH, and the lysat was transferred to vials and combined with 250 µL of HBSS, which was used for an additional washing step (bound activity). The Quantification of the amount of free and bound radioactivity was performed in a γ-counter.
performed using LNCaP cells and ([125I]I-BA)KuE (0.2 nM) as radioligand (1 h, 4°C)

[6] = system: LNCaP-tumor-xenografts; test: Biodistribution in LNCaP-tumor-bearing SCID mice; format: in vivo; conditions: 1 h p.i., mean ± SD, n = 4
Method: To induce LNCaP tumor growth, male CB-17 SCID mice (6–8 weeks, Charles River Laboratories, Sulzfeld, Germany) were inoculated subcutaneously onto the right shoulder with LNCaP cells (approximately 1 × 10^7 cells/200 μL DMEM/Nutrition Mix F-12 with Glutamax-I (1:1) medium and Matrigel (BD Biosciences, Germany) (1:1)). After 3–5 weeks, tumor size reached 4–8 mm in diameter, and the animals were used for in vivo studies.
About 0.8–1 MBq of the ^18F-labeled tracer were injected into the tail vein of the mice (n = 8) under isoflurane anesthesia. Animals were sacrificed at 1 and 2 h p.i.; the organs of interest were dissected, and the activity in the weighed tissues samples was quantified using a γ-counter.
The high plasma protein binding and therefore delayed blood pool clearance of ^18F-PSMA-1007 leads to low tumor-to-blood and tumor-to-spleen ratios, especially 2 h p.i. (Fig. 5; Additional file 1: Figure S5).
Data are given in % IA/g are means ± SD (n = 4 animals per group and time point)

[7] = Metabolite analysis in mice, RP-HPLC of blood, urine and kidney extracts; conditions: 1 h p.i.
Method: as §14

| Structure (SMILES) | Specific Internalization (1h; % of reference) [1] | fold higher internalization rate than the reference ligands [1] [fold] | uptake in bone and lymph node metastases, mean SUVmax [2] | uptake in bone and lymph node metastases, mean SUVmean [2] | uptake in the kidneys (SUVmean) [2] | uptake in the liver (SUVmean) [2] | uptake in the salivary glands (SUVmean) [2] | uptake in the spleen (SUVmean) [2] | intact tracer in blood, urine and kidneys [3] [%] | Human serum albumin binding (plasma protein binding) [4] | IC50 [5] [nM] | tumor accumulation [6] [% IA/g] | enhanced internalization into LNCaP cells compared to EuE-k-18F-FBOA ([1]; versus EuE-k-18F-FBOA) | more hydrophilic metabolite, share of total activity in the kidneys ([7]; kidneys) [%] | more hydrophilic metabolite, share of total activity in the urine ([7]; urine) [%] |
| --- | --- | --- | --- | --- | --- | --- | --- | --- | --- | --- | --- | --- | --- | --- | --- |
| O=C(O)CCC(NC(=O)NC(CCC(=O)NC(CCCCNC(=O)CON=Cc1ccc([18F])cc1)C(=O)O)C(=O)O)C(=O)O (stereo not shown) [EuE-k-^18F-FBOA] | 165 ± 4 % of reference | 1.4 | 21.6 (range 15.4–28.2) | 14.7 (range 9.2–19) | 14.0 | 6.4 | 5.8 | 6.1 | 100 | 13.4% | 4.2 ± 0.4 | 12.7 ± 2.0 |  |  |  |
| O=C(O)CCC(NC(=O)NC(CCC(=O)NC(CCCCNC(=O)CCNC(=O)c1ccc([18F])nc1)C(=O)O)C(=O)O)C(=O)O (stereo not drawn) [EuE-k-β-a-^18F-FPyl] | 323 ± 2 % of reference | 2.7 |  |  |  |  |  |  | 100 | 12.0% | 1.1 ± 0.2 | 13.0 ± 1.0 | twofold |  |  |
| O=C(O)CCC(NC(=O)NC(CCCCNC(=O)c1ccc([18F])nc1)C(=O)O)C(=O)O (stereo not shown) [^18F-DCFPyl, 2-(3-{1-Carboxy-5-[(6-[18F]fluoro-pyridine-3-carbonyl)-amino]-pentyl}-ureido)-pen tanedioic acid, reference compound] | 118 ± 4 % of reference |  |  |  |  |  |  |  |  | 14.3% |  | 7.3 ± 1.0 |  |  |  |
| O=C(O)CC[C@H](NC(=O)N[C@@H](CCCCNC(=O)[C@H](Cc1ccc2ccccc2c1)NC(=O)c1ccc(CNC(=O)[C@H](CCC(=O)O)NC(=O)[C@H](CCC(=O)O)NC(=O)c2ccc(F)nc2)cc1)C(=O)O)C(=O)O [^18F-PSMA-1007] |  |  |  |  |  |  |  |  |  |  | 4.2 ± 0.5 |  |  |  |  |
| O=C(O)CC[C@H](NC(=O)N[C@@H](CCCCNC(=O)[C@H](Cc1ccc2ccccc2c1)NC(=O)c1ccc(CNC(=O)[C@H](CCC(=O)O)NC(=O)[C@H](CCC(=O)O)NC(=O)c2ccc([18F])nc2)cc1)C(=O)O)C(=O)O [^18F-PSMA-1007] | 118 ± 5 % of reference |  |  |  |  |  |  |  |  | 98% and 97.8% |  | 7.1 ± 1.5 |  | 4 | 2 |
